{"source": "paper PMC5762315", "about": "“Inhibition of polo-like kinase 4 (PLK4): a new therapeutic option for rhabdoid tumors and pediatric medulloblastoma” (Oncotarget, 2017)", "assay_in_all_cases": "biochemical", "format_in_all_cases": "biochemical", "key": {"various kinases [1]": {"target": "various kinases (Homo sapiens, UniProt Q16539)", "sequence (Q16539 whole entry)": "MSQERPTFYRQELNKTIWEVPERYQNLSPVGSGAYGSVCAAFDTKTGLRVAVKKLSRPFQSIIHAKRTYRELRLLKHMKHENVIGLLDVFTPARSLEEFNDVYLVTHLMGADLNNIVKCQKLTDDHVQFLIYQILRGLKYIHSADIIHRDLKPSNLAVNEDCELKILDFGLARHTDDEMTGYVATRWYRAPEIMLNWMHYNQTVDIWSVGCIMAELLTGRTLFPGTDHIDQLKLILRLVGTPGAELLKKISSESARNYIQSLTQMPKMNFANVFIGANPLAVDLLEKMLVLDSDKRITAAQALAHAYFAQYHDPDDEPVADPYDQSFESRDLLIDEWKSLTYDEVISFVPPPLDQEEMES"}, "various kinases [2]": {"target": "various kinases (Homo sapiens, UniProt O43781)", "sequence (O43781 whole entry)": "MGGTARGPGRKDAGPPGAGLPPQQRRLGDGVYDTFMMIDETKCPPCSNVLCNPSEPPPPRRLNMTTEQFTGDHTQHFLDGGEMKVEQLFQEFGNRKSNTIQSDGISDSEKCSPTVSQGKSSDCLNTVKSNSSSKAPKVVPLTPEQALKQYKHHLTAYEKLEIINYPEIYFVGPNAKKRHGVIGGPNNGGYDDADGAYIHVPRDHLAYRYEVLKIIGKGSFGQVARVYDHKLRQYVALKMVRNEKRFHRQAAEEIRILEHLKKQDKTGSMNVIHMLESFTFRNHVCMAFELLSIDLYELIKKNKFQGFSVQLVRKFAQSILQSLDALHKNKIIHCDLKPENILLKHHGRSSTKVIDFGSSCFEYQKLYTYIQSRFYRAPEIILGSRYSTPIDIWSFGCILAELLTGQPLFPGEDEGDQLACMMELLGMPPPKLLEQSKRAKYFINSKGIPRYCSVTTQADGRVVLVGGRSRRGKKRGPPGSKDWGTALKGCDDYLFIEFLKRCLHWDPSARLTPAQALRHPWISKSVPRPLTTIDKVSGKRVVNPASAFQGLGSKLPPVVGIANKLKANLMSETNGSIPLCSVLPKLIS", "conditions": "DYRK3"}, "various kinases [3]": {"target": "various kinases (Homo sapiens, UniProt Q96RG2)", "conditions": "PASK"}, "various kinases [4]": {"target": "various kinases (Homo sapiens, UniProt Q9Y5S2)", "conditions": "CDC42 BPB (MRCKB)"}, "various kinases [5]": {"target": "various kinases (Homo sapiens, UniProt P27361)", "conditions": "MAPK3 (ERK1)"}, "various kinases [6]": {"target": "various kinases (Homo sapiens, UniProt P24941)", "conditions": "CDK2/cyclin A"}, "various kinases [7]": {"target": "various kinases (Homo sapiens, UniProt P07949, V804L)", "sequence (P07949 29-1114 V804L)": "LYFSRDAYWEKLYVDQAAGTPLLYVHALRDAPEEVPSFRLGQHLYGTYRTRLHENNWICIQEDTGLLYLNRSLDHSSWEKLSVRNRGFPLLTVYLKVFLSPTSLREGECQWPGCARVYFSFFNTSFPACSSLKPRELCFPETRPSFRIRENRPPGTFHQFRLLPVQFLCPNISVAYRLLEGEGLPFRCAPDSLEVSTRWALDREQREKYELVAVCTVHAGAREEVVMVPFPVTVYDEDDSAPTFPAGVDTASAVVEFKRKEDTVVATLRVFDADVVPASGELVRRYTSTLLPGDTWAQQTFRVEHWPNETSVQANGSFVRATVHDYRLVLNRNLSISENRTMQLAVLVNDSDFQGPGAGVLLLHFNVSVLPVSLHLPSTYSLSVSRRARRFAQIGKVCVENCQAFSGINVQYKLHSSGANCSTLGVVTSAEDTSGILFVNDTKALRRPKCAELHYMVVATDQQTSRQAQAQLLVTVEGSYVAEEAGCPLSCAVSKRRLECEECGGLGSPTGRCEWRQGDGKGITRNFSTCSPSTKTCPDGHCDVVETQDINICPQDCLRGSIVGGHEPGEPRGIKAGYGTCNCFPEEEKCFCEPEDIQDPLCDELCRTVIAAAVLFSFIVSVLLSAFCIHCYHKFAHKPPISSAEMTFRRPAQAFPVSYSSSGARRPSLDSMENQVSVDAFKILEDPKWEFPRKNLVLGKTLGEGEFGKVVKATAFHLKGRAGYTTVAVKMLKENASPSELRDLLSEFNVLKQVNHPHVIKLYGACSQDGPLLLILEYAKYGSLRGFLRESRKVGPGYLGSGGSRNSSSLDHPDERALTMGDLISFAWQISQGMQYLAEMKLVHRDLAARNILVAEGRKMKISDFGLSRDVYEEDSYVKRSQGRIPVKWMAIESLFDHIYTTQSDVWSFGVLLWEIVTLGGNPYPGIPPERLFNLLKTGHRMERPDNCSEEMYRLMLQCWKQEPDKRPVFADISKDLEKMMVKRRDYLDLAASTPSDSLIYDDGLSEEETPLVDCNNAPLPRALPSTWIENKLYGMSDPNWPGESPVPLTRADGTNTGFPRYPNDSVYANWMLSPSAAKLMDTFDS", "conditions": "kinase RET V804L; ZLYTE"}, "various kinases [8]": {"target": "various kinases (Homo sapiens, UniProt P17252)", "conditions": "kinase PRKCA (PKC alpha); ZLYTE"}, "various kinases [9]": {"target": "various kinases (Homo sapiens, UniProt P10721)", "conditions": "KIT"}, "various kinases [10]": {"target": "various kinases (Homo sapiens, UniProt P11362)", "conditions": "FGFR1"}, "various kinases [11]": {"target": "various kinases (Homo sapiens, UniProt P00519, T315I)", "conditions": "ABL1 T315I"}, "various kinases [12]": {"target": "various kinases (Homo sapiens, UniProt P19784)", "conditions": "CSNK2A2 (CK2 alpha 2)"}, "various kinases [13]": {"target": "various kinases (Homo sapiens, UniProt P48730)", "conditions": "CSNK1D (CK1 delta)"}, "various kinases [14]": {"target": "various kinases (Homo sapiens, UniProt P10721, V560G)", "conditions": "KIT V560G"}, "various kinases [15]": {"target": "various kinases (Homo sapiens, UniProt Q16566)", "conditions": "CAMK4 (CaMKIV)"}, "various kinases [16]": {"target": "various kinases (Homo sapiens, UniProt P17612)", "conditions": "kinase PRKACA (PKA); ZLYTE"}, "various kinases [17]": {"target": "various kinases (Homo sapiens, UniProt P09619)", "conditions": "PDGFRB (PDGFR beta)"}, "various kinases [18]": {"target": "various kinases (Homo sapiens, UniProt Q9P286)", "conditions": "PAK7 (KIAA1264)"}, "various kinases [19]": {"target": "various kinases (Homo sapiens, UniProt P08631)", "conditions": "HCK"}, "various kinases [20]": {"target": "various kinases (Homo sapiens, UniProt Q9NQU5)", "conditions": "PAK6"}, "various kinases [21]": {"target": "various kinases (Homo sapiens, UniProt P04049, Y340D/Y341D)", "sequence (P04049 whole entry Y340D/Y341D)": "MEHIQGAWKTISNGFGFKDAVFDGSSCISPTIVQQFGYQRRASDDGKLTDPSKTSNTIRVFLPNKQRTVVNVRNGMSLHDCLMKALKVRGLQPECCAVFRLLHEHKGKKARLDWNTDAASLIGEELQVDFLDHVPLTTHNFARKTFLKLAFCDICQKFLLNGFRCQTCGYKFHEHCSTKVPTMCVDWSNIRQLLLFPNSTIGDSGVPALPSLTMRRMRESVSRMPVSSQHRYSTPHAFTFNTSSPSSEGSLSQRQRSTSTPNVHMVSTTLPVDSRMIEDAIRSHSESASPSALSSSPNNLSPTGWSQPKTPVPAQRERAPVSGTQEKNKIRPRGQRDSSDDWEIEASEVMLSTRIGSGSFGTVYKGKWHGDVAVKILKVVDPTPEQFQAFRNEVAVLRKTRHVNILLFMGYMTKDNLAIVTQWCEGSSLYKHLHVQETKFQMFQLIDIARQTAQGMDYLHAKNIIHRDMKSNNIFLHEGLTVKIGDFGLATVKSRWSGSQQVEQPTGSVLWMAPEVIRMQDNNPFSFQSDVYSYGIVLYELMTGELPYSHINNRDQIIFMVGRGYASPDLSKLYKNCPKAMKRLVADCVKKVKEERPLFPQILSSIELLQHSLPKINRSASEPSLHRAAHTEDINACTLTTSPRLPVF", "conditions": "kinase RAF1 (cRAF) Y340D Y341D; ZLYTE"}, "various kinases [22]": {"target": "various kinases (Homo sapiens, UniProt O75914)", "conditions": "PAK3"}, "various kinases [23]": {"target": "various kinases (Homo sapiens, UniProt P80192)", "conditions": "MAP3K9 (MLK1)"}, "various kinases [24]": {"target": "various kinases (Homo sapiens, UniProt P51813)", "conditions": "BMX"}, "various kinases [25]": {"target": "various kinases (Homo sapiens, UniProt P54756)", "sequence (P54756 25-1037)": "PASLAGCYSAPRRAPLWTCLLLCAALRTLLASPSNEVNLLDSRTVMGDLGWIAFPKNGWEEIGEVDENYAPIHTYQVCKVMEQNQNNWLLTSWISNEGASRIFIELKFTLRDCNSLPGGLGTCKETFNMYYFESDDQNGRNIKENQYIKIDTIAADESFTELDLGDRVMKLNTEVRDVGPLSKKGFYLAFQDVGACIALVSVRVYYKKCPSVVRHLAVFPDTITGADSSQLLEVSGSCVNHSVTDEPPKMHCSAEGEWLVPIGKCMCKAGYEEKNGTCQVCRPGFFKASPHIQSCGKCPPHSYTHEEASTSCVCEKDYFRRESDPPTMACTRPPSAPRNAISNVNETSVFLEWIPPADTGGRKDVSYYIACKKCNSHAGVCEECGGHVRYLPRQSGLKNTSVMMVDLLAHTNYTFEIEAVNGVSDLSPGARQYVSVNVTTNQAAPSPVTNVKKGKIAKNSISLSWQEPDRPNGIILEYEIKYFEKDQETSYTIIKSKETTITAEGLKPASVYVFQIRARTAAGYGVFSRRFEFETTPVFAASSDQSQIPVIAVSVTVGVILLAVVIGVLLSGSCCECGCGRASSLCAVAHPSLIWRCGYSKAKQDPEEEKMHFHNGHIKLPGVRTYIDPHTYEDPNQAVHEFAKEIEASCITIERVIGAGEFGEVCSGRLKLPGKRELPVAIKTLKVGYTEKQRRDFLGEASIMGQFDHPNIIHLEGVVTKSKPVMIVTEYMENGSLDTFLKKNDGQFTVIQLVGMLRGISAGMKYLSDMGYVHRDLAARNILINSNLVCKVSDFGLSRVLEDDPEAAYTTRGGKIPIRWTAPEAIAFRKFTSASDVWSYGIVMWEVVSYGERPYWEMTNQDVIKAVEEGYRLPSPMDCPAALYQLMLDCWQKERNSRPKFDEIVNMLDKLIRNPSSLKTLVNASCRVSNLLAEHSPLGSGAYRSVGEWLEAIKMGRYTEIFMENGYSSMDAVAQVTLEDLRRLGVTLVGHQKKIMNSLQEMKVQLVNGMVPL", "conditions": "EPHA5"}, "various kinases [26]": {"target": "T1, various kinases (Homo sapiens, UniProt Q96BR1)", "T1 sequence (Q96BR1 1-496)": "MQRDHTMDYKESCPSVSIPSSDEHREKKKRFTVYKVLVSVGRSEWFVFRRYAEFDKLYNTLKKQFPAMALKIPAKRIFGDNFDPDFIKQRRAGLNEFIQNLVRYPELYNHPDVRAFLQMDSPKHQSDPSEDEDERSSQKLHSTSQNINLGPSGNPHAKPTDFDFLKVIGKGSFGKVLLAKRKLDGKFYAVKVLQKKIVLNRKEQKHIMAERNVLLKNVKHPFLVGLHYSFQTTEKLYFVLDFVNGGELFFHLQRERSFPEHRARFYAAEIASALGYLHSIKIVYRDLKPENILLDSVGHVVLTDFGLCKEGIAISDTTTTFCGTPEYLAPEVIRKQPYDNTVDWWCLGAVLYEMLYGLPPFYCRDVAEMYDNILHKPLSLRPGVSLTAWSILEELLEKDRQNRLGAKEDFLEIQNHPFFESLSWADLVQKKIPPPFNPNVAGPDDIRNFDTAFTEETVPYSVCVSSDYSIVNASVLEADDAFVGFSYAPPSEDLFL", "conditions": "kinase SGKL (SGK3); ZLYTE"}, "various kinases [27]": {"target": "various kinases (Homo sapiens, UniProt Q9Y243)", "conditions": "AKT3 (PKB gamma)"}, "various kinases [28]": {"target": "various kinases (Homo sapiens, UniProt Q8N4C8)", "conditions": "MINK1"}, "various kinases [29]": {"target": "various kinases (Homo sapiens, UniProt P78362)", "sequence (P78362 whole entry)": "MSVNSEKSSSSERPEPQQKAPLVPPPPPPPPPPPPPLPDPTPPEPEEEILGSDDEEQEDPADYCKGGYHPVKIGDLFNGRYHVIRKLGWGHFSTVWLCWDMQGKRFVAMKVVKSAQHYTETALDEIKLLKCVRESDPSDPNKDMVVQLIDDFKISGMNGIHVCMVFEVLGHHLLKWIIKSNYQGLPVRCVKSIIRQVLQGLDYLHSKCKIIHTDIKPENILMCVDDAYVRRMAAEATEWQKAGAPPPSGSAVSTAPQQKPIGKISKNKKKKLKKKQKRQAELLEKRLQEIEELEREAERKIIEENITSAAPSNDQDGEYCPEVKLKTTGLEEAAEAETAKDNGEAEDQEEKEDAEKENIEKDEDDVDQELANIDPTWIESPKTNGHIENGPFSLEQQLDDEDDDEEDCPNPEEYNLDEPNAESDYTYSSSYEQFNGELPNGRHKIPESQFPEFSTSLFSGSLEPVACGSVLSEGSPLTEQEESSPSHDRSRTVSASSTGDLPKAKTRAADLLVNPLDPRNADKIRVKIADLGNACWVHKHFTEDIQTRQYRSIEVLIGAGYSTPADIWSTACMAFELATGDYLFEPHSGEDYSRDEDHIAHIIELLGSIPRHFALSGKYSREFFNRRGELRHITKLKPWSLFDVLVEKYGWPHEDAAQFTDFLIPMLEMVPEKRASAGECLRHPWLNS", "conditions": "kinase SRPK2; ZLYTE"}, "various kinases [30]": {"target": "various kinases (Homo sapiens, UniProt P53778)", "conditions": "MAPK12 (p38 gamma)"}, "various kinases [31]": {"target": "various kinases (Homo sapiens, UniProt Q9BUB5)", "conditions": "MKNK1 (MNK1)"}}, "note": "“And” between values parts separate entries of the source, which are not always exact repeats. Identical values can stand only once. Wherever % Inhibition Average is given: test concentration or dose not given here. Wherever % Inhibition Duplicate #1 is given: test concentration or dose not given here. Wherever % Inhibition Duplicate #2 is given: test concentration or dose not given here.", "data": [{"smiles": "COc1ccc2c(c1)[C@]1(C[C@H]1c1ccc3c(/C=C/c4ccc(CN5C[C@@H](C)O[C@@H](C)C5)cc4)n[nH]c3c1)C(=O)N2", "note": "[CFI-400945]", "values": [{"measurement": "% Inhibition", "setting": "various kinases [1]; MAPK14 (p38 alpha)", "result": "8% and 0%"}, {"measurement": "% Inhibition", "setting": "various kinases [1]; MAPK14 (p38 alpha) Direct", "result": 11, "unit": "%"}, {"measurement": "% Inhibition", "setting": "various kinases [2]", "result": "9% and 5%"}, {"measurement": "% Inhibition", "setting": "various kinases [3]", "result": "7% and 2%"}, {"measurement": "% Inhibition", "setting": "various kinases [4]", "result": "-1% and 2%"}, {"measurement": "% Inhibition", "setting": "various kinases [5]", "result": 4, "unit": "%"}, {"measurement": "% Inhibition", "setting": "various kinases [6]", "result": "7% and 2%"}, {"measurement": "% Inhibition Average", "setting": "various kinases [7]", "result": 17, "unit": "%"}, {"measurement": "% Inhibition Duplicate #1", "setting": "various kinases [7]", "result": 14, "unit": "%"}, {"measurement": "% Inhibition Duplicate #2", "setting": "various kinases [7]", "result": 19, "unit": "%"}, {"measurement": "% Inhibition Average", "setting": "various kinases [8]", "result": 5, "unit": "%"}, {"measurement": "% Inhibition Duplicate #1", "setting": "various kinases [8]", "result": -1, "unit": "%"}, {"measurement": "% Inhibition Duplicate #2", "setting": "various kinases [8]", "result": 12, "unit": "%"}, {"measurement": "% Inhibition", "setting": "various kinases [9]", "result": "9% and 7%"}, {"measurement": "% Inhibition", "setting": "various kinases [10]", "result": "59% and 55%"}, {"measurement": "% Inhibition", "setting": "various kinases [11]", "result": "83% and 78%"}, {"measurement": "IC50", "setting": "various kinases [11]", "result": 0.0272, "unit": "µM"}, {"measurement": "% Inhibition", "setting": "various kinases [12]", "result": "-1% and 0%"}, {"measurement": "% Inhibition", "setting": "various kinases [13]", "result": "-2% and 3%"}, {"measurement": "% Inhibition", "setting": "various kinases [14]", "result": "11% and 7%"}, {"measurement": "% Inhibition", "setting": "various kinases [15]", "result": "7% and -3%"}, {"measurement": "% Inhibition Average", "setting": "various kinases [16]", "result": 3, "unit": "%"}, {"measurement": "% Inhibition Duplicate #1", "setting": "various kinases [16]", "result": 4, "unit": "%"}, {"measurement": "% Inhibition Duplicate #2", "setting": "various kinases [16]", "result": 2, "unit": "%"}, {"measurement": "% Inhibition", "setting": "various kinases [17]", "result": "3% and 4%"}, {"measurement": "% Inhibition", "setting": "various kinases [18]", "result": "9% and 13%"}, {"measurement": "% Inhibition", "setting": "various kinases [19]", "result": "13% and 11%"}, {"measurement": "% Inhibition", "setting": "various kinases [20]", "result": "12% and 7%"}, {"measurement": "% Inhibition Average", "setting": "various kinases [21]", "result": 12, "unit": "%"}, {"measurement": "% Inhibition Duplicate #1", "setting": "various kinases [21]", "result": 10, "unit": "%"}, {"measurement": "% Inhibition Duplicate #2", "setting": "various kinases [21]", "result": 14, "unit": "%"}, {"measurement": "% Inhibition", "setting": "various kinases [22]", "result": "11% and 5%"}, {"measurement": "% Inhibition", "setting": "various kinases [23]", "result": "9% and 2%"}, {"measurement": "% Inhibition", "setting": "various kinases [24]", "result": "52% and 54%"}, {"measurement": "% Inhibition", "setting": "various kinases [25]", "result": "8% and 5%"}, {"measurement": "% Inhibition Average", "setting": "various kinases [26]", "result": 3, "unit": "%"}, {"measurement": "% Inhibition Duplicate #1", "setting": "various kinases [26]", "result": 4, "unit": "%"}, {"measurement": "% Inhibition Duplicate #2", "setting": "various kinases [26]", "result": 2, "unit": "%"}, {"measurement": "% Inhibition", "setting": "various kinases [27]", "result": "3% and 4%"}, {"measurement": "% Inhibition", "setting": "various kinases [28]", "result": "12% and 18%"}, {"measurement": "% Inhibition Average", "setting": "various kinases [29]", "result": 7, "unit": "%"}, {"measurement": "% Inhibition Duplicate #1", "setting": "various kinases [29]", "result": 10, "unit": "%"}, {"measurement": "% Inhibition Duplicate #2", "setting": "various kinases [29]", "result": 4, "unit": "%"}, {"measurement": "% Inhibition", "setting": "various kinases [30]", "result": "-3% and -2%"}, {"measurement": "% Inhibition", "setting": "various kinases [31]", "result": "6% and 1%"}]}]}
